In patent US8883758B2, “3,5-disubstituted and 3,5,7-trisubstituted-3H-oxazolo and 3H-thiazolo[4,5-d]pyrimidin-2-one compounds and prodrugs thereof” (Anadys Pharmaceuticals, Inc., priority 2004, dated 2014):

system: fresh cynomolgus monkey hepatocytes; assay: Metabolism of Formula I prodrugs to 6-oxy metabolites in fresh cynomolgus monkey hepatocytes (LC/MS/MS); assay type: in vitro ADME
Experimental: A study was undertaken to evaluate the metabolic stability of Formula I compounds 14, 15, 13, 114, 30, 103, 67, 65, and 76 in the presence of fresh cynomolgus monkey hepatocytes and monitor the formation of 6-oxy metabolites, i.e., Formula II compounds and other compounds of the invention. For comparison, the metabolic stability of famciclovir was also assessed.
Fresh cynomolgus monkey hepatocyte suspension (Lot #: Cy141) was purchased from CellzDirect (Tucson, Ariz.). Hepatocyte Incubation Medium (serum-free, sterile) was purchased from In Vitro Technologies (Baltimore, Md.).
The cynomolgus monkey hepatocyte suspension was prepared from fresh cynomolgus monkey hepatocytes in hepatocyte incubation medium at the concentration of 1.25 million cells/mL. The final incubation concentration (after test article addition) was 1.0 million cells/mL.
Existing 100 mM stock solutions in DMSO were used. The concentrations of the test articles were checked using UV-vis microplate reader. Correction coefficients were determined using the absorbance of a freshly prepared DMSO stock of 122.
Reaction suspensions were prepared in removable 96-well tubes, each containing 320 μL of fresh cynomolgus monkey hepatocyte suspension at the density of 1.25 million cells per mL and 40 μL of hepatocyte incubation medium. The above mixtures were pre-incubated open at 37° C., 95% humidity and 5% CO2 for 30 minutes. Reactions were initiated by the addition of 40 μL of test article at 10× concentration to each tube to achieve the final concentrations of 50 μM for the test article(s) and 1 million/mL cell density. The reaction suspension in each tube was mixed by inverting the tube several times. Aliquots of 50 μL from each reaction suspension were distributed into six additional removable 96-well tubes (one tube per time point taken at 15, 30, 45, 60, 90, and 120 minutes). The open tubes were incubated at 37° C. under 95% humidity and 5% CO2.
At predetermined time points, reactions were terminated by the addition of 150 μL of the stop solution to each tube containing 50 μL of the reaction suspension. The composition of the stop solution was the following: 15 mL of acetonitrile (containing 1 μg/mL nebularine as an internal standard and 0.1% formic acid) combined with 1 mL water.
The calibration curves were prepared in the following way. To 80 μL of cell suspension (at the cell density of 1.25 million/mL) 10 μL of hepatocyte incubation medium and 10 μL of the appropriate concentration of the compound in hepatocyte incubation medium were added Immediately following the compound addition, 300 μL of the stop solution (see above) was added.
All quenched samples were kept on wet ice until they were processed for analysis. Then they were mixed using a bench top Multi-Tube Vortexer (VWR Scientific Products) for approximately 30 seconds, and centrifuged at 4,000 rpm (3,220 rcf) for 10 minutes at 4° C. Clear supernatant (100 μl) was transferred into a clean deep well 96-well plate, evaporated to dryness under nitrogen, reconstituted in 100 μL of 90:10 water:acetonitrile, and analyzed for the parent form and metabolites of the test article using an appropriate LC/MS/MS method.
The compounds were quantified on an API3000 LC/MS/MS instrument in the ESI-Positive MRM (multiple reaction monitoring) mode.

Row | Compound | Metabolism to the corresponding 6-oxy metabolite
1 | CC(=O)OCC(CCn1cnc2cnc(N)nc21)COC(C)=O [Famciclovir, reference compound] | metabolized to yield the corresponding 6-oxy metabolites
2 | CC(=O)OCC[C@H]1O[C@@H](n2c(=O)sc3cnc(N)nc32)[C@H](OC(C)=O)[C@@H]1OC(C)=O [Compound 67, 5-Amino-3-(5′-O-acetoxymethyl-2′,3′-di-O-acetyl-5′-deoxy-β-D-ribofuranosyl)-3H-thiazolo[4,5-d]pyrimidin-2-one] | metabolized to yield the corresponding 6-oxy metabolites
3 | C=C1[C@@H](O)[C@H](n2c(=O)sc3cnc(N)nc32)O[C@@H]1CO [Compound 76, 5-Amino-3-(3′-deoxy-3′-methylidene-β-D-ribofuranosyl)-3H-thiazolo[4,5-d]pyrimidin-2-one] | metabolized to yield the corresponding 6-oxy metabolites
4 | C[C@@]1(O)[C@@H](CO)O[C@@H](n2c(=O)sc3cnc(N)nc32)[C@@H]1O [Compound 30, 5-Amino-3-(3′-methyl-β-D-ribofuransyl)-3H-thiazolo[4,5-d]pyrimidin-2-one] | metabolized to yield the corresponding 6-oxy metabolites
5 | CC(=O)O[C@@H]1C[C@@H](CO)O[C@H]1n1c(=O)sc2cnc(N)nc21 [Compound 15, 5-Amino-3-(2′-O-acetyl-3′-deoxy-β-D-ribofuranosyl)-3H-thiazolo[4,5-d]pyrimidin-2-one] | metabolized to yield the corresponding 6-oxy metabolites
6 | CC(=O)OC[C@@H]1C[C@@H](OC(C)=O)[C@H](n2c(=O)sc3cnc(N)nc32)O1 [Compound 14, 5-Amino-3-(2′,5′-di-O-acetyl-3′-deoxy-β-D-ribofuranosyl)-3H-thiazolo[4,5-d]pyrimidin-2-one] | metabolized to yield the corresponding 6-oxy metabolites
7 | Nc1ncc2sc(=O)n([C@@H]3O[C@H](CO)C[C@H]3O)c2n1 [Compound 13, 5-Amino-3-(3′-deoxy-β-D-ribofuranosyl)-3H-thiazolo[4,5-d]pyrimidin-2-one] | metabolized to yield the corresponding 6-oxy metabolites
8 | Nc1ncc2sc(=O)n(C3O[C@H](CO)[C@@H](CO)[C@H]3O)c2n1 (stereo partly drawn) [Compound 65, (3′S)-5-Amino-3-(3′-deoxy-3′-hydroxymethyl-β-D-ribofuranosyl)-3H-thiazolo[4,5-d]pyrimidin-2-one] | metabolized to yield the corresponding 6-oxy metabolites
9 | CC(=O)OC[C@H]1O[C@@H](n2c(=O)sc3cnc(N)nc32)[C@H](OC(C)=O)[C@H]1OC(C)=O [Compound 114, 5-Amino-3-(2′,3′,5′-tri-O-acetyl-β-D-xylofuranosyl)-3H-thiazolo[4,5-d]pyrimidin-2-one] | metabolized to yield the corresponding 6-oxy metabolites
